Results as given in patent US11964996B2, “2-alkynylmannose derivative and application thereof” (priority 2020, dated 2024).

What follows are compounds tested against T1, FimH proteins (Escherichia coli, UniProt Q1R2J4) (assay: hemagglutination inhibition (HAI) assay: UPEC UTI89 with guinea pig red blood cells). Conditions: read-out: HAI EC90 (minimum concentration for inhibiting hemagglutination).
T1 construct: endogenous in cells; host or cells: UPEC strain UTI89 (whole bacteria)
Assay type: cell-based, uropathogenic Escherichia coli (UPEC) UTI89
Protocol: In the present example, the mannose derivatives A1 to A107 that were prepared in Examples 1 to 12 were analyzed in hemagglutination inhibition (HAI) assays to determine inhibitory effects of the compounds on the function/activity of FimH proteins.
1. Preparation of a guinea pig red blood cell solution: an adult guinea pig was anesthetized with ethyl ether, blood was sampled from the heart, placed in an EDTA blood collection tube, and centrifuged at 2,000 rpm for 5 min, serum was removed, the sample was transferred in a centrifuge tube (15 mL), sterilized PBS was added, the sample was centrifuged at 1,500 rpm for 10 min, a supernatant was removed, the sample was transferred in a centrifuge tube (50 mL), PBS was added, the sample was centrifuged at 1,500 rpm for 10 min and repeatedly washed twice, and red blood cells were slightly aspirated into a new centrifuge tube (50 mL) to obtain a 5% guinea pig red blood cell solution.
2. Preparation of a bacteria solution: a UPEC cell line UTI89 was inoculated on a medium plate and cultured in an incubator at 37° C. overnight. Single colonies were picked and inoculated in an LB medium in a sterilized conical flask, and cultured at 37° C. and 170 r/min overnight. When an OD value at 540 nm was about 0.8 on a microplate reader, the bacterial concentration was about 10^8-10^9 cfu/mL, the bacteria solution was centrifuged at 2,000 rpm for 10 min, a supernatant was removed, and 1 mL of bacteria solution was prepared into 0.1 mL of PBS bacteria solution. […] The bacteria and the medium were uniformly mixed by shaking, and reacted in an incubator at 25° C. for about 20-40 min. When the plate was read, the wells in which complete agglutination occurred were used as 4HAU for the hemagglutination titer of the bacteria. For example, if the endpoint titer of hemagglutination is 1:256, the dilution multiple of the 4HAU antigen is 1:64 (256 divided by 4). Bacteria solutions at corresponding concentrations were prepared according to the experimental results.
3. Activity assay: a compound to be tested or a standard product was placed in a 96-well microtest plate, 50 μL of drug at an initial concentration of 200 μM was placed in the first well, and from the second well, 25 μL of PBS was added to each well to dilute the drug in proportion. The drug and the medium in the first well were mixed, 25 μL of mixed drug solution was placed in the second well, the drug solution was diluted in sequence to the last well, and 25 μL of drug solution was removed. 25 μL of bacteria solution was placed in each well of the culture plate containing the diluted drug, and cultured at 37° C. for 40 min. 25 μL of 5% guinea pig red blood cell suspension was placed in each well, and slightly uniformly mixed with the drug, and the plate was placed at 4° C. for about 1 h. When results were determined, the plate was tilted 60°, and whether the red blood cells flowed like teardrops was observed.
Mannosyl proteins are expressed on the surface of red blood cells in a guinea pig, which can bind to FimH proteins of UTI89 to cause hemagglutination. It can be observed with the naked eyes that the red blood cells form film-like agglutination at the bottom of the well, and loose red dots can be seen in the center. The FimH protein inhibitor competitively binds to FimH proteins to inhibit hemagglutination. It can be observed with the naked eyes that all the red blood cells sink and concentrate at the bottom of the well to form dense dots. The minimum concentration for inhibiting hemagglutination is expressed as an EC90 value of a compound. The final concentration of the compound in the first well is 66700 nM, the concentration in the second well is half that in the first well, the concentration in the third well is half that in the second well, and so on. […] A low EC90 value indicates high activity of a compound.

Row | SMILES | EC90
1 | CNC(=O)c1cccc(-c2ccc(O[C@H]3O[C@H](CO)[C@@H](O)[C@H](O)[C@@]3(O)C#Cc3ccccc3)c(C)c2)c1 [Compound A1] | 8 nM
2 | CNC(=O)c1cccc(-c2ccc(O[C@H]3O[C@H](CO)[C@@H](O)[C@H](O)[C@@]3(O)C#CC3CC3)c(C)c2)c1 [Compound A2] | 16 nM
3 | CNC(=O)c1cccc(-c2ccc(O[C@H]3O[C@H](CO)[C@@H](O)[C@H](O)[C@@]3(O)C#Cc3cnn(C)c3)c(C)c2)c1 [Compound A3] | 16 nM
4 | Cc1cc(Br)ccc1O[C@H]1O[C@H](CO)[C@@H](O)[C@H](O)[C@@]1(O)C#Cc1ccccc1 [Compound A4] | 1040 nM
5 | Cc1ccccc1O[C@H]1O[C@H](CO)[C@@H](O)[C@H](O)[C@@]1(O)C#Cc1ccccc1 [Compound A5] | 520 nM
6 | CC(C)O[C@H]1O[C@H](CO)[C@@H](O)[C@H](O)[C@@]1(O)C#Cc1ccccc1 [Compound A6] | 1040 nM
7 | CCC(C)O[C@H]1O[C@H](CO)[C@@H](O)[C@H](O)[C@@]1(O)C#Cc1ccccc1 (stereo partly drawn) [Compound A7] | 260 nM
8 | CC(C)C(C)O[C@H]1O[C@H](CO)[C@@H](O)[C@H](O)[C@@]1(O)C#Cc1ccccc1 (stereo partly drawn) [Compound A8] | 260 nM
9 | CCC(CC)O[C@H]1O[C@H](CO)[C@@H](O)[C@H](O)[C@@]1(O)C#Cc1ccccc1 [Compound A9] | 130 nM
10 | OC[C@H]1O[C@H](C#Cc2cnn(-c3ccc(OC(F)(F)F)cc3)c2)[C@](O)(C#CC2CC2)[C@@H](O)[C@@H]1O [Compound A10] | 0.13 nM
11 | OC[C@H]1O[C@H](OC2CCCC2)[C@](O)(C#Cc2ccccc2)[C@@H](O)[C@@H]1O [Compound A11] | 520 nM
12 | OC[C@H]1O[C@H](OC2CCCCC2)[C@](O)(C#Cc2ccccc2)[C@@H](O)[C@@H]1O [Compound A12] | 260 nM
13 | OC[C@H]1O[C@H](OC2CCC(F)(F)CC2)[C@](O)(C#Cc2ccccc2)[C@@H](O)[C@@H]1O [Compound A13] | 1040 nM
14 | C#C[C@H]1O[C@H](CO)[C@@H](O)[C@H](O)[C@@]1(O)C#Cc1ccccc1 [Compound A14] | 4160 nM
15 | CC#C[C@H]1O[C@H](CO)[C@@H](O)[C@H](O)[C@@]1(O)C#Cc1ccccc1 [Compound A15] | 520 nM
16 | OC[C@H]1O[C@H](C#CC2CC2)[C@](O)(C#Cc2ccccc2)[C@@H](O)[C@@H]1O [Compound A16] | 130 nM
17 | OC[C@H]1O[C@H](C#Cc2ccccc2)[C@](O)(C#Cc2ccccc2)[C@@H](O)[C@@H]1O [Compound A17] | 130 nM
18 | Cc1cccc(C#C[C@@]2(O)[C@@H](C#Cc3ccccc3)O[C@H](CO)[C@@H](O)[C@@H]2O)c1 [Compound A18] | 260 nM
19 | CC(C)c1cccc(C#C[C@@]2(O)[C@@H](C#Cc3ccccc3)O[C@H](CO)[C@@H](O)[C@@H]2O)c1 [Compound A19] | 520 nM
20 | OC[C@H]1O[C@H](C#Cc2ccccc2)[C@](O)(C#Cc2cccc(C3CC3)c2)[C@@H](O)[C@@H]1O [Compound A20] | 260 nM
21 | CC(C)Oc1cccc(C#C[C@@]2(O)[C@@H](C#Cc3ccccc3)O[C@H](CO)[C@@H](O)[C@@H]2O)c1 [Compound A21] | 260 nM
22 | CS(=O)(=O)c1cccc(C#C[C@@]2(O)[C@@H](C#Cc3ccccc3)O[C@H](CO)[C@@H](O)[C@@H]2O)c1 [Compound A22] | 130 nM
23 | CC(C)n1cc(C#C[C@@]2(O)[C@@H](C#Cc3ccccc3)O[C@H](CO)[C@@H](O)[C@@H]2O)ccc1=O [Compound A23] | 260 nM
24 | OC[C@H]1O[C@H](C#Cc2ccccc2)[C@](O)(C#Cc2cccc3ccccc23)[C@@H](O)[C@@H]1O [Compound A24] | 260 nM
25 | Cc1cccc(C#C[C@H]2O[C@H](CO)[C@@H](O)[C@H](O)[C@@]2(O)C#Cc2ccccc2)c1 [Compound A25] | 260 nM
26 | CC(C)c1cccc(C#C[C@H]2O[C@H](CO)[C@@H](O)[C@H](O)[C@@]2(O)C#Cc2ccccc2)c1 [Compound A26] | 130 nM

Row | SMILES | EC90
27 | CC(C)Oc1cccc(C#C[C@H]2O[C@H](CO)[C@@H](O)[C@H](O)[C@@]2(O)C#Cc2ccccc2)c1 [Compound A27] | 130 nM
28 | OC[C@H]1O[C@H](C#Cc2cccc(C(F)(F)F)c2)[C@](O)(C#Cc2ccccc2)[C@@H](O)[C@@H]1O [Compound A28] | 260 nM
29 | OC[C@H]1O[C@H](C#Cc2cccc3ccccc23)[C@](O)(C#Cc2ccccc2)[C@@H](O)[C@@H]1O [Compound A29] | 520 nM
30 | OC[C@H]1O[C@H](C#Cc2ccc3ccccc3c2)[C@](O)(C#Cc2ccccc2)[C@@H](O)[C@@H]1O [Compound A30] | 1040 nM
31 | OC[C@H]1O[C@H](C#Cc2cnn(-c3ccc(OCC4CC4)cc3)c2)[C@](O)(C#CC2CC2)[C@@H](O)[C@@H]1O [Compound A31] | < 0.1 nM
32 | OC[C@H]1O[C@H](C#Cc2cccc(-c3ccccc3)c2)[C@](O)(C#Cc2ccccc2)[C@@H](O)[C@@H]1O [Compound A32] | 130 nM
33 | CC(C)n1cc(C#C[C@H]2O[C@H](CO)[C@@H](O)[C@H](O)[C@@]2(O)C#Cc2ccccc2)ccc1=O [Compound A33] | 8 nM
34 | Cn1cc(C#C[C@H]2O[C@H](CO)[C@@H](O)[C@H](O)[C@@]2(O)C#Cc2ccccc2)cn1 [Compound A34] | 64 nM
35 | Cn1ncc(C#C[C@H]2O[C@H](CO)[C@@H](O)[C@H](O)[C@@]2(O)C#Cc2ccccc2)c1Cl [Compound A35] | 520 nM
36 | Cc1c(C#C[C@H]2O[C@H](CO)[C@@H](O)[C@H](O)[C@@]2(O)C#Cc2ccccc2)cnn1C [Compound A36] | 260 nM
37 | Cc1nn(C)cc1C#C[C@H]1O[C@H](CO)[C@@H](O)[C@H](O)[C@@]1(O)C#Cc1ccccc1 [Compound A38] | 260 nM
38 | CC(C)n1cc(C#C[C@H]2O[C@H](CO)[C@@H](O)[C@H](O)[C@@]2(O)C#Cc2ccccc2)cn1 [Compound A39] | 8 nM
39 | CCn1cc(C#C[C@H]2O[C@H](CO)[C@@H](O)[C@H](O)[C@@]2(O)C#Cc2ccccc2)cn1 [Compound A40] | 32 nM
40 | CCC(C)n1cc(C#C[C@H]2O[C@H](CO)[C@@H](O)[C@H](O)[C@@]2(O)C#Cc2ccccc2)cn1 (stereo partly drawn) [Compound A41] | 8 nM
41 | OC[C@H]1O[C@H](C#Cc2cnn(CC3CC3)c2)[C@](O)(C#Cc2ccccc2)[C@@H](O)[C@@H]1O [Compound A42] | 4 nM
42 | OC[C@H]1O[C@H](C#Cc2cnn(Cc3ccccc3)c2)[C@](O)(C#Cc2ccccc2)[C@@H](O)[C@@H]1O [Compound A43] | 32 nM
43 | OC[C@H]1O[C@H](C#Cc2cnn(C3CCC3)c2)[C@](O)(C#Cc2ccccc2)[C@@H](O)[C@@H]1O [Compound A44] | 8 nM
44 | OC[C@H]1O[C@H](C#Cc2cnn(C3CCCC3)c2)[C@](O)(C#Cc2ccccc2)[C@@H](O)[C@@H]1O [Compound A45] | 1 nM
45 | OC[C@H]1O[C@H](C#Cc2cnn(C3CCCCC3)c2)[C@](O)(C#Cc2ccccc2)[C@@H](O)[C@@H]1O [Compound A46] | 0.5 nM
46 | OC[C@H]1O[C@H](C#Cc2cnn(-c3ccccc3)c2)[C@](O)(C#Cc2ccccc2)[C@@H](O)[C@@H]1O [Compound A47] | 0.25 nM
47 | OC[C@H]1O[C@H](C#Cc2cnn(-c3ccccc3Cl)c2)[C@](O)(C#Cc2ccccc2)[C@@H](O)[C@@H]1O [Compound A48] | 1 nM
48 | OC[C@H]1O[C@H](C#Cc2cnn([C@H]3CCOC3)c2)[C@](O)(C#Cc2ccccc2)[C@@H](O)[C@@H]1O [Compound A49] | 16 nM
49 | OC[C@H]1O[C@H](C#Cc2cnn([C@@H]3CCOC3)c2)[C@](O)(C#Cc2ccccc2)[C@@H](O)[C@@H]1O [Compound A50] | 130 nM
50 | OC[C@H]1O[C@H](C#Cc2cnn(C3CCCOC3)c2)[C@](O)(C#Cc2ccccc2)[C@@H](O)[C@@H]1O (stereo partly drawn) [Compound A51] | 16 nM
51 | OC[C@H]1O[C@H](C#Cc2cnn(C3CCOCC3)c2)[C@](O)(C#Cc2ccccc2)[C@@H](O)[C@@H]1O [Compound A52] | 4 nM
